Experimental data taken from US20200102295A1, “NITROCATECHOL DERIVATIVES AS COMT INHIBITORS” (BIAL - PORTELA & CA, S.A., priority 2005, published 2020).
Where “and” joins values, the source holds several entries; their conditions need not be identical. Identical values can stand only once.

Columns and labels:
[1] = target: T1, mouse liver COMT (Mus musculus, UniProt O88587); assay: Mouse liver COMT activity after oral administration of test compounds; type: in vivo; conditions: 3 mg/kg oral, 3 h after administration
T1 construct: Aliquots of 0.5 ml of liver homogenates were preincubated; from tissue; host or cells: mouse liver homogenate (NMRI mice, dosed orally; ex vivo activity)
T1 sequence (O88587 1-265): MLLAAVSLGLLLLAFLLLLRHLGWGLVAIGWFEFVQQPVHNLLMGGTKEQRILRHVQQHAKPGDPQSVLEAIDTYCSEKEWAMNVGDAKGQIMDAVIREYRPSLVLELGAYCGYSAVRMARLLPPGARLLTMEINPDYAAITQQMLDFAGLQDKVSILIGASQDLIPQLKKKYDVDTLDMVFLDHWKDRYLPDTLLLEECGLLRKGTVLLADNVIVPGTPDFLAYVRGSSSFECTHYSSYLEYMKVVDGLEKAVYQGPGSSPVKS

[2] = test system: Neuro 2A mouse neuroblastoma cells; assay: Cell toxicity: Neuro 2A cell viability (calcein-AM); type: cell-based; conditions: Neuro 2A cells, 30 μM, 24 h exposure

SMILES	COMT activity (% of control) [1]	% of viable cells [2]	COMT activity (% of control) ([1]; 3 mg/kg)
Cc1ccc(-c2noc(-c3cc(O)c(O)c([N+](=O)[O-])c3)n2)c[n+]1[O-] [Compound 20, 5-[3-(6-Methyl-1-oxy-pyridin-3-yl)-[1,2,4]oxadiazol-5-yl]-3-nitro-benzene-1,2-diol]	56.6 % of control		
Cc1nc(-c2cc(O)c(O)c([N+](=O)[O-])c2)no1 [Compound 2, 5-(5-Methyl-[1,2,4]oxadiazol-3-yl)-3-nitro-benzene-1,2-diol]		92.5%	79 % of control and 78.8 % of control
Cc1c(C)c(C)[n+]([O-])c(Br)c1-c1noc(-c2cc(O)c(O)c([N+](=O)[O-])c2)n1 [Compound 40, 5-[3-(2-Bromo-4,5,6-trimethyl-1-oxy-pyridin-3-yl)-[1,2,4]oxadiazol-5-yl]-3-nitrobenzene-1,2-diol]	55.2 % of control	69.1%	
Cc1cc[n+]([O-])cc1-c1noc(-c2cc(O)c(O)c([N+](=O)[O-])c2)n1 [Compound 21, 5-[3-(4-Methyl-1-oxy-pyridin-3-yl)-[1,2,4]oxadiazol-5-yl]-3-nitro-benzene-1,2-diol]	95.6 % of control		
Cc1cc(C)[n+]([O-])c(Cl)c1-c1noc(-c2cc(O)c(O)c([N+](=O)[O-])c2)n1 [Compound 37, 5-[3-(2-Chloro-4,6-dimethyl-1-oxy-pyridin-3-yl)-[1,2,4]oxadiazol-5-yl]-3-nitro-benzene-1,2-diol]	42.5 % of control	92.3%	
Cc1ccc(-c2noc(-c3cc(O)c(O)c([N+](=O)[O-])c3)n2)c(Cl)[n+]1[O-] [Compound 25, 5-[3-(2-Chloro-6-methyl-1-oxy-pyridin-3-yl)-[1,2,4]oxadiazol-5-yl]-3-nitro-benzene-1,2-diol]	23.1 % of control	100.2%	
O=[N+]([O-])c1cc(-c2nc(-c3cc[n+]([O-])c(Oc4ccccc4)c3)no2)cc(O)c1O [Compound 14, 3-Nitro-5-[3-(1-oxy-2-phenoxy-pyridin-4-yl)-[1,2,4]oxadiazol-5-yl]-benzene-1,2-diol]	76.8 % of control	83.5%	
O=[N+]([O-])c1cc(-c2nc(-c3cc[n+]([O-])c(N4CCOCC4)c3)no2)cc(O)c1O [Compound 11, 5-[3-(2-Morpholin-4-yl-1-oxy-pyridine-4-yl)-[1,2,4]oxadiazol-5-yl]-3-nitro-benzene-1,2-diol]	63.9 % of control	105.7%	
O=[N+]([O-])c1cc(-c2nc(-c3ccc[n+]([O-])c3Cl)no2)cc(O)c1O [Compound 24, 5-[3-(2-Chloro-1-oxy-pyridin-3-yl)-[1,2,4]oxadiazol-5-yl]-3-nitro-benzene-1,2-diol]	71.8 % of control	93.7%	
Cc1c(-c2noc(-c3cc(O)c(O)c([N+](=O)[O-])c3)n2)c(C(F)(F)F)cc(-c2ccccc2)[n+]1[O-] [Compound 32, 5-[3-(2-Methyl-1-oxy-6-phenyl-4-trifluoromethyl-pyridin-3-yl)-[1,2,4]oxadiazol-5-yl]-3-nitro-benzene-1,2-diol]	9.7 % of control	26.6%	
O=[N+]([O-])c1cc(-c2nc(-c3ccc(C(F)(F)F)[n+]([O-])c3)no2)cc(O)c1O [Compound 28, 3-Nitro-5-[3-(1-oxy-6-trifluoromethyl-pyridin-3-yl)-[1,2,4]oxadiazol-5-yl]-benzene-1,2-diol]	11.3 % of control	87.0%	
Cc1c(-c2noc(-c3cc(O)c(O)c([N+](=O)[O-])c3)n2)c[n+]([O-])c(C)c1C [Compound 46, 3-Nitro-5-[3-(4,5,6-trimethyl-1-oxy-pyridin-3-yl)-[1,2,4]oxadiazol-5-yl]-benzene-1,2-diol]	43.1 % of control	53.0%	
Cc1cc(C(F)(F)F)c(-c2noc(-c3cc(O)c(O)c([N+](=O)[O-])c3)n2)c(-c2ccccc2)[n+]1[O-] [Compound 33, 5-[3-(6-Methyl-1-oxy-2-phenyl-4-trifluoromethyl-pyridin-3-yl)-[1,2,4]oxadiazol-5-yl]-3-nitro-benzene-1,2-diol]	39.8 % of control	45.0%	
CSc1ccc(-c2noc(-c3cc(O)c(O)c([N+](=O)[O-])c3)n2)c[n+]1[O-] [Compound 27, 5-[3-(6-Methylsulfanyl-1-oxy-pyridin-3-yl)-[1,2,4]oxadiazol-5-yl]-3-nitro-benzene-1,2-diol]	47.5 % of control	95.7%	
CSc1cc(-c2noc(-c3cc(O)c(O)c([N+](=O)[O-])c3)n2)cc[n+]1[O-] [Compound 17, 5-[3-(2-Methylsulfanyl-1-oxy-pyridine-4-yl)-[1,2,4]oxadiazol-5-yl]-3-nitro-benzene-1,2-diol]	89.9 % of control	96.0%	
O=[N+]([O-])c1cc(-c2nc(-c3cc[n+]([O-])c(Cl)c3)no2)cc(O)c1O [Compound 8, 5-[3-(2-Chloro-1-oxy-pyridin-4-yl)-[1,2,4]oxadiazol-5-yl]-3-nitro-benzene-1,2-diol]	55.4 % of control	106.7%	
O=[N+]([O-])c1cc(-c2nc(-c3c(Cl)c[n+]([O-])cc3Cl)no2)cc(O)c1O [Compound 7, 5-[3-(3,5-Dichloro-1-oxy-pyridin-4-yl)-[1,2,4]oxadiazol-5-yl]-3-nitro-benzene-1,2-diol]	14.2 % of control	56.9%	
O=[N+]([O-])c1cc(-c2nc(-c3cc(Br)c[n+]([O-])c3)no2)cc(O)c1O [Compound 19, 5-[3-(5-Bromo-1-oxy-pyridin-3-yl)-[1,2,4]oxadiazol-5-yl]-3-nitro-benzene-1,2-diol]	45.2 % of control	100.1%	
CS(=O)(=O)c1cc(-c2noc(-c3cc(O)c(O)c([N+](=O)[O-])c3)n2)cc[n+]1[O-] [Compound 16, 5-[3-(2-Methanesulfonyl-1-oxy-pyridine-4-yl)-[1,2,4]oxadiazol-5-yl]-3-nitro-benzene-1,2-diol]	85.9 % of control	64.6%	
O=[N+]([O-])c1cc(-c2nc(-c3ccc[n+]([O-])c3N3CCOCC3)no2)cc(O)c1O [Compound 26, 5-[3-(2-Morpholin-4-yl-1-oxy-pyridin-3-yl)-[1,2,4]oxadiazol-5-yl]-3-nitro-benzene-1,2-diol]	35.5 % of control	110.9%	
Cc1ccc(-c2noc(-c3cc(O)c(O)c([N+](=O)[O-])c3)n2)c(Br)[n+]1[O-] [Compound 36, 5-[3-(2-Bromo-6-methyl-1-oxy-pyridin-3-yl)-[1,2,4]oxadiazol-5-yl]-3-nitro-benzene-1,2-diol]	22.9 % of control	76.3%	
O=[N+]([O-])c1cc(-c2nc(-c3cc[n+]([O-])c(N4CCSCC4)c3)no2)cc(O)c1O [Compound 12, 3-Nitro-5-[3-(1-oxy-2-thiomorpholin-4-yl-pyridin-4-yl)-[1,2,4]oxadiazol-5-yl]-benzene-1,2-diol]	92.9 % of control	91.7%	
Cc1cc(C(F)(F)F)c(-c2noc(-c3cc(O)c(O)c([N+](=O)[O-])c3)n2)c(C)[n+]1[O-] [Compound 31, 5-[3-(2,6-Dimethyl-1-oxy-4-trifluoromethyl-pyridin-3-yl)-[1,2,4]oxadiazol-5-yl]-3-nitro-benzene-1,2-diol]	0.8 % of control	37.2%	
Cc1noc(-c2cc(O)c(O)c([N+](=O)[O-])c2)n1 [Compound 1, 5-(3-methyl-1,2,4-oxadiazol-5-yl)-3-nitropyrocatechol, reference compound]		55% and 55.1%	59 % of control and 59.9 % of control
O=[N+]([O-])c1cc(-c2nc(COc3ccc(C(F)(F)F)c[n+]3[O-])no2)cc(O)c1O [Compound 44, 3-Nitro-5-[3-(1′-oxy-5-trifluoromethyl-pyridin-2-yloxymethyl)-[1,2,4]oxadiazol-5-yl]-benzene-1,2-diol]	24.5 % of control		
O=[N+]([O-])c1cc(-c2nc(-c3cc[n+]([O-])c4ccccc34)no2)cc(O)c1O [Compound 34, 3-Nitro-5-[3-(1-oxy-quinolin-4-yl)-[1,2,4]oxadiazol-5-yl]-benzene-1,2-diol]	88.6 % of control		
O=[N+]([O-])c1cc(-c2nc(-c3cc(-c4ccccc4)c[n+]([O-])c3)no2)cc(O)c1O [Compound 22, 3-Nitro-5-[3-(1-oxy-5-phenyl-pyridin-3-yl)-[1,2,4]oxadiazol-5-yl]-benzene-1,2-diol]	111.6 % of control		
O=[N+]([O-])c1cc(-c2nc(-c3cc[n+]([O-])c(Sc4ccccc4)c3)no2)cc(O)c1O [Compound 13, 3-Nitro-5-[3-(1-oxy-2-phenylsulfanyl-pyridin-4-yl)-[1,2,4]oxadiazol-5-yl]-benzene-1,2-diol]	102.3 % of control		
O=[N+]([O-])c1cc(-c2nc(-c3cc4ccccc4[n+]([O-])c3)no2)cc(O)c1O [Compound 35, 3-Nitro-5-[3-(1-oxy-quinolin-3-yl)-[1,2,4]oxadiazol-5-yl]-benzene-1,2-diol]	81.2 % of control		
